This note sets out measurements from US20260216168A1, “MODULATION OF PD-1 SIGNALING FOR TREATMENT OF DISEASES” (Wuhan University, priority 2023, published 2026).

The target of one assay is T1, MARCH5 (Homo sapiens, UniProt Q9NX47).
T1 construct: expressed in transfected cells; host or cells: HEK293
T1 sequence (Q9NX47 1-278): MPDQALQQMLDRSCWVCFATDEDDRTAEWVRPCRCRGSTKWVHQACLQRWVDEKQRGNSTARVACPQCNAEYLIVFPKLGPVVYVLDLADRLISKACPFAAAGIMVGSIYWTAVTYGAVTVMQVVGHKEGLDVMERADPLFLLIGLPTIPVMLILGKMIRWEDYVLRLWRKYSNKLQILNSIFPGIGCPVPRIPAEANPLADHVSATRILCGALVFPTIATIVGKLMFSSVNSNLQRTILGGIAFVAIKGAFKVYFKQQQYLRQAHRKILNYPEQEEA
As to the kind of experiment: MARCH5 / γc-luciferase reporter system in co-transfected HEK293 cells (screen of FDA-approved drugs). The class given is cell-based. The source says:
Unfortunately, no pharmacological inhibitors of MARCH5 have been reported. We designed a reporter system in which HEK293 cells are co-transfected with two plasmids encoding MARCH5 and γc-luciferase fusion protein respectively. In this system, inhibition of MARCH5 by an inhibitor would result in increased luciferase activity in reporter assays.
Using this system, we screened a collection of Food and Drug Administration-approved drugs and identified 10 compounds that increased luciferase activity to more than 1.5-folds (Table 1). […] Pitavastatin is a unique lipophilic statin and potent inhibitor of HMG-CoA reductase with a strong effect on lowering plasma total cholesterol and triacylglycerol. Pitavastatin has also been reported to have pleiotropic beneficial effects such as suppression of inflammation, regulation of angiogenesis and osteogenesis, improvement of endothelial function and arterial stiffness.
On the technique in general: In a reporter assay the amount or activity of a reporter protein is the signal.

In another assay the test system is MC38 cells. Briefly: PC, IL-2 and anti-PD-1 therapy in C57BL/6j mice bearing MC38 tumors. Format: in vivo. The settings on record: PC 5 mg/kg, IL-2 50000 IU per mouse, anti-PD-1 100 μg per mouse, i.p. As for the experimental part: (§1) C57BL/6j mice were subcutaneously injected with 5×10^5 of MC38 or B16F10 cells. On day 3 (MC38) or 5 (B16F10) after tumor cell implantation, mice were intraperitoneally injected with control or PC (5 mg/kg/day). Tumor sizes were measured every two days by caliper. Tumor-bearing mice were euthanized on day 13 (MC38) or day 15 (B16F10). Tumor weights were measured by Analytical Balance. […] Data were analyzed using a student's unpaired t-test with GraphPad Prism 8. • (D) Effects of PC on the level of γc in TILs. TILs were isolated from the MC38 tumor tissues of FIG. 7C. TILs were stained with the indicated antibodies and analyzed by flow cytometry. […] Data were analyzed using a student's unpaired t-test with GraphPad Prism 8. […] TILs were isolated from the MC38 tumor tissues of FIG. 7C. TILs were stained with the indicated antibodies and analyzed by flow cytometry. […] C57BL/6j mice were subcutaneously injected with MC38 cells (5×10^5). […] Tumor sizes were measured every two days by caliper from day 5. […] C57BL/6j mice were subcutaneously injected with MC38 cells (5×10^5). […] Mice were sacrificed when the tumor size is bigger than 15 mm of the mean tumor diameter, tumor volume exceeded 2000 mm^3, or tumor had ulcers with diameter reached 10 mm. Statistical analysis was performed using the GraphPad Prism 8 software, n=8. Kaplan-Meier survival curves and corresponding log-rank (Mantel-Cox) tests were used to evaluate the statistical differences between groups in survival studies. There is a significant difference when the P<0.05.
Tumor size and mouse survival were measured every two days from day 5.
For survival studies, mice were sacrificed when the tumor size was bigger than 15 mm of the mean tumor diameter, tumor volume exceeded 2000 mm^3, or tumor had ulcers with a diameter reached 10 mm. Statistical analysis was performed using the GraphPad Prism 8 software. Kaplan-Meier survival curves and corresponding log-rank (Mantel-Cox) tests were used to evaluate the statistical differences between groups in survival studies. There is a significant difference when the P<0.05.

The test system of a further assay is γc. Briefly: γc level by immunoblotting after PC treatment of T cells and T cell lines. The following applies: PC 0, 0.5, 1, 2 μM, 24 h; human and mouse CD8+ T, Jurkat, HPB-ALL, CTLL2 cells; listed as PC. The class given is cell-based. Background: In western blotting, separated proteins are transferred to a membrane and probed.
Assay [1] relates to MC38 colorectal carcinoma and B16F10 melanoma. As to the kind of experiment: Pitavastatin calcium (PC) therapy in C57BL/6j mice, MC38 and B16F10 tumor models. Format: in vivo, mouse. The settings on record: PC alone 5 mg/kg/day i.p.; MC38 and B16F10 in C57BL/6j mice; listed as PC. As for the experimental part:
C57BL/6j mice were subcutaneously injected with 5×10^5 of MC38 or B16F10 cells. On day 3 (MC38) or 5 (B16F10) after tumor cell implantation, mice were intraperitoneally injected with control or PC (5 mg/kg/day). Tumor sizes were measured every two days by caliper. Tumor-bearing mice were euthanized on day 13 (MC38) or day 15 (B16F10). Tumor weights were measured by Analytical Balance. […] Data were analyzed using a student's unpaired t-test with GraphPad Prism 8. • (D) Effects of PC on the level of γc in TILs. TILs were isolated from the MC38 tumor tissues of FIG. 7C. TILs were stained with the indicated antibodies and analyzed by flow cytometry. […] Data were analyzed using a student's unpaired t-test with GraphPad Prism 8. […] TILs were isolated from the MC38 tumor tissues of FIG. 7C. TILs were stained with the indicated antibodies and analyzed by flow cytometry. […] C57BL/6j mice were subcutaneously injected with MC38 cells (5×10^5). […] Tumor sizes were measured every two days by caliper from day 5. […]
Pitavastatin calcium (PC) therapy in C57BL/6j mice: mice were intraperitoneally injected with control or PC (P129617, 5 mg/kg/day, dissolved in PBS, Aladdin) three (MC38 tumor) or five (B16F10 tumor) days after inoculation of tumor cells, and tumor sizes were measured every two days by caliper. […] TILs were analyzed by flow cytometry.

The test system of a further assay is tumor. As to the kind of experiment: PC or rosuvastatin calcium alone or with IL-2 on tumor growth in mice. Format: in vivo, mouse. The source says:
We further tested the anti-tumor effects of PC in mouse MC38 colorectal carcinoma and B16F10 melanoma models.

Assay [2] relates to MARCH5-deficient Jurkat cells. Briefly: γc level by immunoblotting in control or MARCH5-deficient Jurkat cells treated with PC. The following applies: PC 0, 0.5, 1 μM, 24 h, listed as PC. Format: cell-based, human.
In assay [3] the test system is tumor-infiltrating lymphocytes. Briefly: Flow cytometry of tumor-infiltrating lymphocytes from MC38 tumors after PC. The class given is in vivo, mouse. As for the experimental part: as §1
Cells were subjected to stain with the indicated antibodies for 30 min in 4° C. The cells were analyzed and data were acquired with BD Fortessa X-20 and FACSDiva 7 software following the exemplified gating strategy for flow cytometry analysis. The data were processed using FlowJo software.
Pitavastatin calcium (PC) therapy in C57BL/6j mice: mice were intraperitoneally injected with control or PC (P129617, 5 mg/kg/day, dissolved in PBS, Aladdin) three (MC38 tumor) or five (B16F10 tumor) days after inoculation of tumor cells, and tumor sizes were measured every two days by caliper. Tumor-bearing mice were euthanized on day 13 (MC38 tumor) or day 15 (B16F10 tumor). TILs were analyzed by flow cytometry.
Tumor tissues were separated from the mice and cut into pieces. The tumor tissues were suspended with 2 ml of tumor digestion buffer (1×HBSS buffer with 5 mg/ml collagenase II and 0.1% DNaseI) and rotated for at 37° C. for 1 h. The cell suspension was filtered using a 70-μm filter to obtain single-cell suspension. […] Cells were analyzed and data were acquired with BD Fortessa X-20 and FACSDiva 7 software following the exemplified gating strategy for flow cytometry analysis. […]
On the technique in general: In flow cytometry, cells or beads pass a laser one at a time.

Entries after “also recorded” stand apart in the source; their conditions may differ.

Consider `O=C(O)C[C@H](O)C[C@H](O)/C=C/c1c(C2CC2)nc2ccccc2c1-c1ccc(F)cc1` [Pitavastatin calcium], for which the “Rel. Luc. Act” value on MARCH5 (HEK293 cells co-transfected with MARCH5 and γc-luciferase fusion protein, increase = MARCH5 inhibition) was found to be 2.06. Besides, on MARCH5 (confirmative experiments), the “luciferase activity in MARCH5-expressing versus control HEK293 cells” value is recorded as “specifically increased the luciferase activity in MARCH5-expressing but not control HEK293 cells”. Also, the “tumor suppression by IL-2 or IL-2 plus PD-1 blocking antibody when PC is added” value in the assay on MC38 cells is “significantly improved the efficacy of anti-tumor immunotherapy in mice”; in the assay on MC38 cells (listed as PC), “significantly increased the efficacies; also recorded: potentiates the anti-tumor efficacy of IL-2 and PD-1 combination; also recorded: sensitized the anti-tumor effects of IL-2 as well as its combination with PD-1 blocking antibody”. In addition, in the assay on MC38 cells (listed as PC), the “overall survival of mice treated with IL-2 or IL-2 plus PD-1 blocking antibody when PC is added” value is “significantly increased the efficacies; also recorded: promotes the survival rate of mice treated with IL-2 and PD-1 blockade”. Also, the “level of γc (immunoblotting)” value in the assay with γc is listed as “up-regulated the level of γc in a dose-dependent manner; also recorded: up-regulates the level of γc”. Further, the tumor growth result was “significantly suppressed tumor growth; also recorded: suppresses tumor growth; also recorded: inhibited tumor growth” in assay [1] and “suppressed tumor growth” in the assay with tumor (statin administered alone, mice). Further, the “synergistic effect with IL-2 on tumor suppression” value in the assay with tumor (combined with IL-2, mice) is on record as “has a synergistic effect”. The “γc protein level, MARCH5 dependence” value in assay [2] was “did not further increase its protein level; also recorded: MARCH5-deficiency impairs PC-induced up-regulation of γc; also recorded: up-regulated the level of γc in a MARCH5-dependent manner”. Moreover, the “level of γc in tumor-infiltrating lymphocytes” value in assay [3] (MC38 tumors, PC 5 mg/kg/day i.p., listed as PC) is listed as “higher level of γc; also recorded: up-regulated the level of γc in tumor-infiltrating lymphocytes”. Moreover, the “percentage of TIM3+ cells in infiltrated CD8+ T cells” value in assay [3] (MC38 tumors, PC treatment) is given as “reduced the percentage of TIM3^+ cells”. In assay [3] (MC38 tumors, PC treatment, listed as PC), the “percentage of GzmB+ cells in infiltrated CD8+ T cells” value was “up-regulated the percentage of GzmB^+ cells; also recorded: increases tumor infiltrating CD8^+ cytotoxic T cells”. In assay [3] (after PC administration), the “percentages of CD8+ T, NK, CD4+ T, Treg and B cells in tumor-infiltrating lymphocytes” value is “did not show significant difference”.
